The values that follow come from patent US10308662B2, “Thienopyranones as kinase and epigenetic inhibitors” (SignalRx Pharmaceuticals, Inc., priority 2014, dated 2019).

Series [1] relates to SKNBE(2) neuroblastoma cell line. The series can be described thus: Cytotoxicity / proliferation study, SKNBE(2). The format is cell-based. The note with it: Homo sapiens, SKNBE2; SKNBE(2) cell line.
The test system of series [2] is N-myc (MYCN) mRNA. The series can be described thus: Real-time PCR of N-myc mRNA in IMR32 cells. The class given is cell-based. Particulars: IMR32, 5 μM, 24 hrs. For orientation: Quantitative PCR measures a nucleic acid by following its amplification.
Series [3] deals with Cyclin D1 mRNA. The series can be described thus: Real-time PCR of Cyclin D1 mRNA in IMR32 cells. The format is cell-based. The note with it: IMR32, 5 μM, 24 hrs.
The target in series [4] is BRD4 (Homo sapiens, UniProt O60885). The series can be described thus: BRD4 inhibition assay (region not specified). The format is binding.
Procedure: The activity of a compound of the invention as an inhibitor of a bromodomain-containing protein, such as a BET protein, such as BRD2, BRD3, BRD4, and/or BRDT, or an isoform or mutant thereof, may be determined in vitro, in vivo, or in a cell line. In vitro assays include assays that determine inhibition of bromodomain-containing proteins. Alternatively, inhibitor binding may be determined by running a competition experiment where a provided compound is incubated with a bromodomain-containing protein, such as a BET protein bound to known ligands, labeled or unlabeled. For example, bromodomain inhibition can be determined in vitro using Alpha Screen Technology (http://www.reactionbiology.com/webapps/site/NewsPDFs/Bromodomain%20Assay%20Platform%20for%20Drug%20Screening%20and%20Discovery.pdf). […] Bromodomain inhibition may also be predicted by in silico modeling as described below in the Examples.
Computational modeling was performed using the commercially available FlexX (http://www.biosolveit.de/FlexX/download/flexx_brochure.pdf) software tools. […] It should be noted that the more negative the number or value of the docking score is, the stronger is the predicted binding energy at the BRD4 site that recognizes the acetyl lysine of chromatin.
Series [5] deals with B16 F10 luciferase melanoma cells. Put plainly: B16 melanoma mouse model of metastasis. The note with it: 50 mg/kg every other day, 15 days. The class given is in vivo, mice. From the text:
The luciferase signal was monitored every third day by injecting luciferin, until the lungs were harvested on day 15 (n=5). […] Lungs extracted from these animals are shown below the luciferase imaged pictures supporting the repression of tumor growth in Cmpd 28-treated mice.

In series [6] the test system is NB9464 murine neuroblastoma tumor. The series can be described thus: NB9464 tumor growth in nude mice. The class given is in vivo. The note with it: 50 mg/kg, 3 days a week for 1.5 weeks, intra-peritoneal.
Source text: MYCN-overexpressing murine neuroblastoma cells (NB9464) were transplanted into nude mice, grown for 24 days and randomized into two groups.
In series [7] the test system is NB9464 cell line. Put plainly: Cytotoxicity / proliferation study, NB9464. The format is cell-based, murine. The note with it: Mus musculus.
For series [8], the system named is p-AKT(Ser473). The series can be described thus: Western blot of pAKT in SKNBE(2) cells. The format is cell-based, human. Particulars: 24 hrs treatment, 50 ng/ml IGF stimulation. As for the experimental part:
(§1) Cells were stimulated with 50 ng/ml IGF for 30 min and used for lysate preparation. Proteins were quantitated by the BCA protein assay (Pierce). Equal amounts of protein were resolved by polyacrylamide gels, transferred to nitrocellulose membrane and probed by Western blot with the following primary antibodies: p-AKT(Ser473), AKT (Cell Signaling Technologies), N-MYC, CyclinD1 and β-actin (Santa Cruz Biotechnology).
On the technique in general: Immunoblotting shows a protein as a band on a membrane.

Series [9] has as its system MYCN-dependent MB patient derived xenograft (PDX) cell line. Put plainly: Cytotoxicity / proliferation study, PDX MB. Particulars: Homo sapiens. The format is cell-based.
The test system of series [10] is Panc02 tumor cells. The series can be described thus: Orthotopic Panc02 pancreatic model of spontaneous metastasis. The note with it: 50 mg/kg three times a week. The class given is in vivo, mice. As for the experimental part: Panc02 (1×10^6) tumor cells were injected into the pancreas of WT mice (n=18). After 20 days, mice were randomized into two groups. One group was treated with DMSO (control) and the other group was treated with 50 mg/kg of SF2523, three times a week. Tumors were removed 35 days after tumor implantation. Values are mean±SEM (n=8 in each gp; P<0.01; pair wise two-sided Student's t test). […] Values are mean±SEM (n=7; P<0.01; pair wise two-sided Student's t test). The data are representative of three independent experiments performed.

In series [11] the test system is MYCN promoter region. Put plainly: Brd4 chromatin precipitation with quantitative PCR of MYCN promoter in SKNBE(2) cells. Particulars: 24 hours exposure. The class given is cell-based, human. As to the method:
MYCN amplified SKNBE(2) cells were exposed to inhibitors for 24 hours then chromatin was precipitated with Brd4 (rabbit polyclonal antibody) along with rabbit IgG as a negative control (IgG). Precipitated chromatin was analyzed for the MYCN gene (2 sites within the MYCN promoter region) by quantitative PCR and enrichment is shown as the percentage of total input DNA (FIG. 4). The negative control region primers amplify within a gene desert region approximately 1 Mb away from MYCN (MYC-N NR). Error bars represent±SEM of triplicate data. P<0.05 as compared to positive control (paired t-test).

In series [12] the test system is N-MYC. The series can be described thus: Western blot of N-MYC in SKNBE(2) cells. The format is cell-based, human. Particulars: 24 hrs treatment, 50 ng/ml IGF stimulation. As for the experimental part:
as §1

Series [13] has as its system PI3K. The series can be described thus: PI3K inhibition (isoform not given). The format is biochemical. From the text:
Inhibitory activity can be determined routinely using known methods and also from commercial vendors offering this service for kinases and bromodomain proteins. […] In vivo, PI3K inhibition can be determined from target tissue biopsies by standard tissue processing to disrupt cells and then performing Western Blot analysis to determine the presence or absence of pAKT (substrate of PI3K) relative to a control sample. The activity of a compound of the invention as an inhibitor of a bromodomain-containing protein, such as a BET protein, such as BRD2, BRD3, BRD4, and/or BRDT, or an isoform or mutant thereof, may be determined in vitro, in vivo, or in a cell line. In vitro assays include assays that determine inhibition of bromodomain-containing proteins. Alternatively, inhibitor binding may be determined by running a competition experiment where a provided compound is incubated with a bromodomain-containing protein, such as a BET protein bound to known ligands, labeled or unlabeled. For example, bromodomain inhibition can be determined in vitro using Alpha Screen Technology (http://www.reactionbiology.com/webapps/site/NewsPDFs/Bromodomain%20Assay%20Platform%20for%20Drug%20Screening%20and%20Discovery.pdf). […]

Usually IC50 stands for the concentration needed to halve the response being measured. Higher therefore signals weaker potency in that assay. `O=c1cc(N2CCOCC2)oc2c(-c3ccc4c(c3)OCCO4)csc12` [Cmpd 28]: the IC50 was 7.6 µM in [1], 8.7 µM in series [7] and 3.6 µM in [9]. For the same compound, in series [2], the “MYCN mRNA expression” value is recorded as “inhibits MYCN expression”. For the same compound, the “Cyclin D1 mRNA expression” value in [3] is listed as “reducing mRNA expression”. Also, the BRD4 inhibition result in series [4] was “showed activity against BRD4 regions 1 and 2”. In series [5], the “luciferase bioimaging of cancer cells” value was “little evidence of the presence of cancer cells”. Further, the “reduction in metastatic nodules” value in series [5] (lungs) is 60%. Further, the “tolerability (body weight)” value in series [6] was “well tolerated”. Moreover, the “tumor growth compared to vehicle” value in series [6] is recorded as “significantly blocked tumor growth”. Further, in series [8], the “pAKT level by Western blot” value was “decreased MYCN and pAKT”. The spontaneous metastasis entry in [10] is on record as “blocks spontaneous metastasis”. Further, the “MYCN expression (Brd4-precipitated chromatin, MYCN promoter PCR)” value in series [11] is on record as “significantly repressed MYCN expression”. Moreover, the “MYCN quantity by Western blot” value in series [12] is “decreased MYCN”.
As to `Cc1sc2c(c1C)C(c1ccc(Cl)cc1)=N[C@@H](CC(=O)OC(C)(C)C)c1nnc(C)n1-2` [JQ-1], the PI3K inhibition entry in series [13] is given as “does not inhibit PI3K”. In addition, the “MYCN expression (Brd4-precipitated chromatin, MYCN promoter PCR)” value in [11] is “significantly repressed MYCN expression”. In addition, the “MYCN quantity by Western blot” value in [12] is recorded as “inhibited only MYCN quantities”.
